Data set [1] has as its system A375res cells.
Text: (§1) A vemurafenib-resistant cell line is generated by chronic treatment of the human melanoma cell line A375 (ATCC) harboring the B-Raf V600E mutation with increasing concentrations PLX4720.
For data set [2], the system named is A375res cells. Briefly: Proliferation assay in vemurafenib-resistant A375res melanoma cells. The note with it: Homo sapiens, 72 h, read-out: absolute IC50 values.
Text: as §1

Counter-ions that a name gives are not always drawn.

This note sets out measurements from patent US9187474B2, “Raf inhibitor compounds” (Deciphera Pharmaceuticals, LLC, priority 2012, dated 2015).

For orientation: IC50 means the concentration that gives 50% inhibition. As for `Cc1cc(F)c(NC(=O)NCCC(C)(C)F)cc1-c1cnc2cc(N)ncc2c1` [Example 81, 1-(5-(7-amino-1,6-naphthyridin-3-yl)-2-fluoro-4-methylphenyl)-3-(3-fluoro-3-methylbutyl)urea], the “IC50 shift A375 to A375res” value with A375res cells [1] is 0.5-4.9 fold. Moreover, the IC50 with A375res cells [2] fell in the range of 9 to 504 nM.

Turning to `CNc1cc2nc(C)c(-c3cc(NC(=O)NC(C)CC(C)(C)C)c(F)cc3C)cc2cn1` (stereo not drawn) [Example 59, 1-(4,4-dimethylpentan-2-yl)-3-(2-fluoro-4-methyl-5-(2-methyl-7-(methylamino)-1,6-naphthyridin-3-yl)phenyl)urea], the “IC50 shift A375 to A375res” value in the data set on A375res cells [1] is recorded as 0.5-4.9 fold. Moreover, in the data set with A375res cells [2], the IC50 is 9 to 504 nM.

`CNc1cc2nc(C)c(-c3cc(NC(=O)NCC4CCCCC4)c(F)cc3C)cc2cn1` [Example 29, 1-(cyclohexylmethyl)-3-(2-fluoro-4-methyl-5-(2-methyl-7-(methylamino)-1,6-naphthyridin-3-yl)phenyl)urea hydrochloride]: the “IC50 shift A375 to A375res” value in the data set on A375res cells [1] is listed as 0.5-4.9 fold. Further, the IC50 in the data set with A375res cells [2] was in the range of 9 to 504 nM.

Turning to `CNc1cc2nc(C)c(-c3cc(NC(=O)NCCCC(C)(F)F)c(F)cc3C)cc2cn1` [Example 99, 1-(4,4-difluoropentyl)-3-(2-fluoro-4-methyl-5-(2-methyl-7-(methylamino)-1,6-naphthyridin-3-yl)phenyl)urea hydrochloride], the “IC50 shift A375 to A375res” value in the data set on A375res cells [1] is given as 0.5-4.9 fold. In addition, the IC50 with A375res cells [2] was 9 to 504 nM.

Consider `CNc1cc2nc(C)c(-c3cc(NC(=O)N[C@H]4CC[C@](C)(C#N)CC4)c(F)cc3C)cc2cn1` [Example 25, 1-(trans-4-cyano-4-methylcyclohexyl)-3-(2-fluoro-4-methyl-5-(2-methyl-7-(methylamino)-1,6-naphthyridin-3-yl)phenyl)urea], for which the “IC50 shift A375 to A375res” value in the data set on A375res cells [1] is reported as 0.5-4.9 fold. Moreover, the IC50 in the data set with A375res cells [2] is 9 to 504 nM.

Take `CNc1cc2nc(C)c(-c3cc(NC(=O)N[C@H](C)CC(C)(C)C)c(F)cc3C)cc2cn1` [Example 72, (R)-1-(4,4-dimethylpentan-2-yl)-3-(2-fluoro-4-methyl-5-(2-methyl-7-(methylamino)-1,6-naphthyridin-3-yl)phenyl)urea]: in the data set with A375res cells [1], the “IC50 shift A375 to A375res” value is 0.5-4.9 fold. The 50% inhibitory concentration (IC50) in the data set with A375res cells [2] is 9 to 504 nM.

As for `CNc1cc2nc(C)c(-c3cc(NC(=O)NCCCC(C)(C)OC)c(F)cc3C)cc2cn1` [Example 33, 1-(2-fluoro-4-methyl-5-(2-methyl-7-(methylamino)-1,6-naphthyridin-3-yl)phenyl)-3-(4-methoxy-4-methylpentyl)urea hydrochloride], the “IC50 shift A375 to A375res” value in the data set on A375res cells [1] is on record as 0.5-4.9 fold. In addition, the IC50 in the data set on A375res cells [2] lay within 9 to 504 nM.

For `CNc1cc2nc(C)c(-c3cc(NC(=O)N[C@H]4CC[C@@](C)(C#N)CC4)c(F)cc3C)cc2cn1` [Example 26, 1-(cis-4-cyano-4-methylcyclohexyl)-3-(2-fluoro-4-methyl-5-(2-methyl-7-(methylamino)-1,6-naphthyridin-3-yl)phenyl)urea], the “IC50 shift A375 to A375res” value in the data set with A375res cells [1] is reported as 0.5-4.9 fold. For the same compound, in the data set on A375res cells [2], the IC50 was in the range of 9 to 504 nM.

Take `Cc1cc(F)c(NC(=O)NC2CCCCCC2)cc1-c1cc2cnc(N)cc2nc1C` [Example 82, 1-(5-(7-amino-2-methyl-1,6-naphthyridin-3-yl)-2-fluoro-4-methylphenyl)-3-cycloheptylurea]: the “IC50 shift A375 to A375res” value in the data set on A375res cells [1] is 0.5-4.9 fold. Further, in the data set with A375res cells [2], the IC50 lay in the range of 9 to 504 nM.

Consider `CNc1cc2ncc(-c3cc(NC(=O)NCCC(C)(C)OC)c(F)cc3C)cc2cn1` [Example 32, 1-(2-fluoro-4-methyl-5-(7-(methylamino)-1,6-naphthyridin-3-yl)phenyl)-3-(3-methoxy-3-methylbutyl)urea], for which, in the data set on A375res cells [1], the “IC50 shift A375 to A375res” value is given as 0.5-4.9 fold. For the same compound, the IC50 in the data set with A375res cells [2] was 9 to 504 nM.

In the case of `Cc1nc2cc(NC(=O)C3CC3)ncc2cc1-c1cc(NC(=O)NCCC2CC2)c(F)cc1F` [Example 123, N-(3-(5-(3-(2-cyclopropylethyl)ureido)-2,4-difluorophenyl)-2-methyl-1,6-naphthyridin-7-yl)cyclopropanecarboxamid hydrochloride], the “IC50 shift A375 to A375res” value in the data set with A375res cells [1] is 0.5-4.9 fold. Also, the IC50 with A375res cells [2] is 9 to 504 nM.

As to `CNc1cc2nc(C)c(-c3cc(NC(=O)NCCCC(F)(F)F)c(F)cc3C)cc2cn1` [Example 91, hydrochloride], the “IC50 shift A375 to A375res” value with A375res cells [1] is recorded as 0.5-4.9 fold. For the same compound, the IC50 in the data set with A375res cells [2] fell in the range of 9 to 504 nM.

On to `Cc1cc(F)c(NC(=O)NCCC(C)(C)C#N)cc1-c1cc2cnc(N)cc2nc1C` [Example 44, 1-(5-(7-amino-2-methyl-1,6-naphthyridin-3-yl)-2-fluoro-4-methylphenyl)-3-(3-cyano-3-methylbutyl)urea], for which the “IC50 shift A375 to A375res” value with A375res cells [1] was 0.5-4.9 fold. Also, the IC50 in the data set with A375res cells [2] lay within 9 to 504 nM.

In the case of `CNc1cc2nc(C)c(-c3cc(NC(=O)NCCC4CCC4)c(F)cc3C)cc2cn1` [Example 97, 1-(2-cyclobutylethyl)-3-(2-fluoro-4-methyl-5-(2-methyl-7-(methylamino)-1,6-naphthyridin-3-yl)phenyl)urea hydrochloride], the “IC50 shift A375 to A375res” value in the data set with A375res cells [1] is reported as 0.5-4.9 fold. Besides, the IC50 in the data set on A375res cells [2] is 9 to 504 nM.

Regarding `CNc1cc2nc(C)c(-c3cc(NC(=O)NCC(O)C(C)C)c(F)cc3C)cc2cn1` (stereo not drawn) [Example 60, 1-(2-fluoro-4-methyl-5-(2-methyl-7-(methylamino)-1,6-naphthyridin-3-yl)phenyl)-3-(2-hydroxy-3-methylbutyl)urea], the “IC50 shift A375 to A375res” value in the data set on A375res cells [1] is 0.5-4.9 fold. Moreover, the IC50 with A375res cells [2] was 9 to 504 nM.

As to `CNc1cc2nc(C)c(-c3cc(NC(=O)NCC(O)C(F)(F)F)c(F)cc3C)cc2cn1` (stereo not drawn) [Example 61, 1-(2-fluoro-4-methyl-5-(2-methyl-7-(methylamino)-1,6-naphthyridin-3-yl)phenyl)-3-(3,3,3-trifluoro-2-hydroxypropyl)urea], in the data set on A375res cells [1], the “IC50 shift A375 to A375res” value was 0.5-4.9 fold. Besides, in the data set on A375res cells [2], the IC50 fell in the range of 9 to 504 nM.

Consider `CCOC(C)(C)CCNC(=O)Nc1cc(-c2cc3cnc(NC)cc3nc2C)c(C)cc1F` [Example 30, 1-(3-ethoxy-3-methylbutyl)-3-(2-fluoro-4-methyl-5-(2-methyl-7-(methylamino)-1,6-naphthyridin-3-yl)phenyl)urea hydrochloride], for which the “IC50 shift A375 to A375res” value in the data set on A375res cells [1] was 0.5-4.9 fold. The IC50 in the data set with A375res cells [2] fell in the range of 9 to 504 nM.

`CNc1cc2nc(C)c(-c3cc(NC(=O)NCCC4(OC)CC4)c(F)cc3C)cc2cn1` [Example 31, 1-(2-fluoro-4-methyl-5-(2-methyl-7-(methylamino)-1,6-naphthyridin-3-yl)phenyl)-3-(2-(1-methoxycyclopropyl)ethyl)urea hydrochloride]: in the data set on A375res cells [1], the “IC50 shift A375 to A375res” value is reported as 0.5-4.9 fold. Moreover, the IC50 with A375res cells [2] fell in the range of 9 to 504 nM.

`Cc1cc(F)c(NC(=O)NCCC(C)(C)F)cc1-c1cc2cnc(NCCO)cc2nc1C` [Example 65, 1-(3-fluoro-3-methylbutyl)-3-(2-fluoro-5-(7-((2-hydroxyethyl)amino)-2-methyl-1,6-naphthyridin-3-yl)-4-methylphenyl)urea]: in the data set on A375res cells [1], the “IC50 shift A375 to A375res” value was 0.5-4.9 fold. The IC50 in the data set on A375res cells [2] is 9 to 504 nM.

Take `CNc1cc2nc(C)c(-c3cc(NC(=O)NCCC4(C)CC4)c(F)cc3C)cc2cn1` [Example 27, 1-(2-fluoro-4-methyl-5-(2-methyl-7-(methylamino)-1,6-naphthyridin-3-yl)phenyl)-3-(2-(1-methylcyclopropyl)ethyl)urea hydrochloride]: the “IC50 shift A375 to A375res” value in the data set with A375res cells [1] was 0.5-4.9 fold. In addition, in the data set with A375res cells [2], the IC50 fell in the range of 9 to 504 nM.

As for `CNc1cc2nc(C)c(-c3cc(NC(=O)N[C@H]4C[C@@](C)(F)C4)c(F)cc3C)cc2cn1` [Example 100, 1-(3-fluoro-trans(3-methylcyclobutyl))-3-(2-fluoro-4-methyl-5-(2-methyl-7-(methylamino)-1,6-naphthyridin-3-yl)phenyl)urea], the “IC50 shift A375 to A375res” value in the data set on A375res cells [1] is 0.5-4.9 fold. In addition, the IC50 with A375res cells [2] fell in the range of 9 to 504 nM.

Consider `CNc1cc2nc(C)c(-c3cc(NC(=O)NCCC4(OC)CC4)c(F)cc3F)cc2cn1` [Example 28, 1-(2,4-difluoro-5-(2-methyl-7-(methylamino)-1,6-naphthyridin-3-yl)phenyl)-3-(2-(1-methoxycyclopropyl)ethyl)urea], for which the “IC50 shift A375 to A375res” value in the data set on A375res cells [1] is 0.5-4.9 fold. The IC50 in the data set on A375res cells [2] was in the range of 9 to 504 nM.

Consider `CNc1cc2nc(C)c(-c3cc(NC(=O)NCCCC(C)(C)F)c(F)cc3C)cc2cn1` [Example 101, 1-(2-fluoro-4-methyl-5-(2-methyl-7-(methylamino)-1,6-naphthyridin-3-yl)phenyl)-3-(4-fluoro-4-methylpentyl)urea hydrochloride], for which the “IC50 shift A375 to A375res” value with A375res cells [1] is reported as 0.5-4.9 fold. For the same compound, the half-maximal inhibitory concentration (IC50) with A375res cells [2] lay in the range of 9 to 504 nM.

Regarding `COC(C)(C)CCNC(=O)Nc1cc(-c2cc3cnc(N)cc3nc2C)c(C)cc1F` [Example 80, 1-(5-(7-amino-2-methyl-1,6-naphthyridin-3-yl)-2-fluoro-4-methylphenyl)-3-(3-methoxy-3-methylbutyl)urea hydrochloride], in the data set on A375res cells [1], the “IC50 shift A375 to A375res” value is listed as 0.5-4.9 fold. For the same compound, in the data set on A375res cells [2], the IC50 was 9 to 504 nM.
